Experimental data taken from patent US8354400B2, “Benzoxazole compounds and methods of use” (Eisai R&D Co., Ltd., priority 2008, dated 2013).
Where two headings read alike, the source gives them in different places.

Legend:
Assay type in all cases: cell-based
[1] = test system: dissociated mouse splenocytes; experiment: Spleen CellTiter-Glo viability assay; conditions: Splenocyte, 72 hours, viability (ATP)
Method: (3) Spleen CT Glo Assay: To determine if compounds had adverse effects on living cells, dissociated mouse splenocytes were incubated with some of the compounds for 72 hours. At the end of the incubation Celliter-Glo™ reagent (Promega Corporation, Madison, Wis.) was added and luminescence was read per manufacturer's instructions. This reagent measures ATP as an indication of cell metabolism. Dead cells will not produce signal. IC50 is defined as the concentration of compound that suppresses viability to 50% of that observed in the absence of compound. The few compounds that measurably affected viability did so at concentrations far above those that affected cytokine release in response to TLR9 stimulation.

human TLR9 = biological target: T1, human TLR9 (Homo sapiens, UniProt Q9NR96); experiment: Primary assay: HEK/TLR9 activation (NF-kB luciferase reporter, Oligo CpG 2006 stimulation)
T1 construct: expressed in transfected cells; host or cells: HEK293 (ATCC No. CRP-1573 [sic])
T1 sequence (Q9NR96 26-1032): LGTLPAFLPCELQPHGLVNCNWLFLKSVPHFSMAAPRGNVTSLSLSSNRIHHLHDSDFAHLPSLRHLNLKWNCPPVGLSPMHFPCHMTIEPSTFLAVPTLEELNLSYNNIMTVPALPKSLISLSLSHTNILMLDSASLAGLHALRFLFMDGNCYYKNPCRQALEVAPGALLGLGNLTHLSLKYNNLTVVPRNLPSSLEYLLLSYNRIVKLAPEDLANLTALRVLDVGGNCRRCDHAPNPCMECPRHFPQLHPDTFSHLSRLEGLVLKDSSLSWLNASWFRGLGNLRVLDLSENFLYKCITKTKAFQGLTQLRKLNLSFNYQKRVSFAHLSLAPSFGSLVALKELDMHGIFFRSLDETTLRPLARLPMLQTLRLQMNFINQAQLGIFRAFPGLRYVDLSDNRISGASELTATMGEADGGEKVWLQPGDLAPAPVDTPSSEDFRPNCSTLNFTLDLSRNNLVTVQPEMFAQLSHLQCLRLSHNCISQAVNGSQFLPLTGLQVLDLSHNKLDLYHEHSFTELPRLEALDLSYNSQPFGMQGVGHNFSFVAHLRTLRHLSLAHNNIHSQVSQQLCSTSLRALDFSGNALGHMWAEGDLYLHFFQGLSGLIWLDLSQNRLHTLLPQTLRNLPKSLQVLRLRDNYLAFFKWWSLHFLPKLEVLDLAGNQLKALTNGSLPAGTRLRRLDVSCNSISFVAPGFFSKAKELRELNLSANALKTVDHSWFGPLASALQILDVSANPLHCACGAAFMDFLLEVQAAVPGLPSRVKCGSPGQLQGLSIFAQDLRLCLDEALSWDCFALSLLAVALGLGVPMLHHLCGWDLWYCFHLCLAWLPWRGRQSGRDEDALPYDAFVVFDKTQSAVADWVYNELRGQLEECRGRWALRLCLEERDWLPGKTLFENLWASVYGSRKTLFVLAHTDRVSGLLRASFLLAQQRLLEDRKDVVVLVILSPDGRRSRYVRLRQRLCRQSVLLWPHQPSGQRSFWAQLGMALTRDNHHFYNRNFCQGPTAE
Description: A. Primary Assay. The primary assay involved transfecting human embryonic kidney epithelial (HEK) cells with TLR9. More specifically, HEK293 […] cells (ATCC No. CRP-1573, American Type Culture Collection, Manassas, Va.) were transfected with pcDNA3.1D/V5-His-TOPO® plasmid (Invitrogen, Carlsbad, Calif.) encoding human TLR9 (directly inserted as a Tag polymerase-amplified PCR product) and firefly luciferase under the control of three NF-kB binding sites contained in the E-selectin-1 promoter, which was cloned into a pGL3-Enhancer Vector (Promega Corp, Madison, Wis.). Each compound was added to cells 30 min. before stimulation with Oligo CpG 2006, a synthetic phosphorothioate oligonucleotide (Hartmann et al., J Immunol. 164:1617-24 (2000)), with nucleotide sequence 5′-TCGTCGTTTTGTCGTTTTGTCGTT-3′ (SEQ ID NO:1). The cells were incubated overnight at 37° C. The luciferase substrate Steady-Glo® (Promega) was added to the wells, and luminescence was measured to determine the extent of TLR9-driven gene activation. The luminescence data was used to calculate an IC50 for each sample. The IC50 is defined as the concentration of compound that suppresses the luminescence to 50% of that observed in the absence of compound, in other words, with full stimulation.

human TLR7 = biological target: T2, human TLR7 (Homo sapiens, UniProt Q9NYK1); experiment: HEK/TLR7 activation assay (R848 stimulation); conditions: HEK cells transfected with human TLR7
T2 construct: expressed in transfected cells; host or cells: HEK cell line (HEK293, as in the primary assay)
T2 sequence (Q9NYK1 27-1049): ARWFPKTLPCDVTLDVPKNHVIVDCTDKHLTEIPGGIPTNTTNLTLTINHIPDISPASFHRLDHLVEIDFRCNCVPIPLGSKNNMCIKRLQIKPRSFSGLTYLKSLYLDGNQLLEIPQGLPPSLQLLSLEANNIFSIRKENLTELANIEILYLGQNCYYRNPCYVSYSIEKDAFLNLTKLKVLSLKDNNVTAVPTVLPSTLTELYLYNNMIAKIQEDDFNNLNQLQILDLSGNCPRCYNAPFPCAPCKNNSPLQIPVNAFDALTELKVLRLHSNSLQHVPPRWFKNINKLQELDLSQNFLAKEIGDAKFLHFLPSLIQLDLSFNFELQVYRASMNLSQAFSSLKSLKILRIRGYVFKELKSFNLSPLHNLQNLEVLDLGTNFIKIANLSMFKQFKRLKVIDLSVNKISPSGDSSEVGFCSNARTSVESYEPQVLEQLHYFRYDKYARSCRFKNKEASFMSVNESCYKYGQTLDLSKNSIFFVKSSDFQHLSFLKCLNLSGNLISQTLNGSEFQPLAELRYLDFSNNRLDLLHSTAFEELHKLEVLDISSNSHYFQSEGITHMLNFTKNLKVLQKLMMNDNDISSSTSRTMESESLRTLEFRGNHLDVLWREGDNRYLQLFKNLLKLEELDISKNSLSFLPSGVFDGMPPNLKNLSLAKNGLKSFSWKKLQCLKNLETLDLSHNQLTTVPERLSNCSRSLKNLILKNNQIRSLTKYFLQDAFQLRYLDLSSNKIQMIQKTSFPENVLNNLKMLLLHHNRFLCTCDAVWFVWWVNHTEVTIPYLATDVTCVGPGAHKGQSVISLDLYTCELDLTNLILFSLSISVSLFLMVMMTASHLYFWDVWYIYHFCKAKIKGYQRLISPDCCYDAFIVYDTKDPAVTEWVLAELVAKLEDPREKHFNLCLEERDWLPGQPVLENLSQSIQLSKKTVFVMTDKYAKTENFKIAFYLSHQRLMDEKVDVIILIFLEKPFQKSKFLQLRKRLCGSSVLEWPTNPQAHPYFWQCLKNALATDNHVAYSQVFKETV
Method: (1) HEK/TLR7Activation Assay: The same compounds were tested in the same way as the primary assay with the following differences. The plasmid used to transfect the HEK cell line encoded for human TLR7 instead of TLR9, and R848 was used to stimulate the cells instead of Oligo CpG 2006.

[2] = test system: mouse spleen IL-6 production in response to Oligo CpG 1668; experiment: Splenocyte CpG 1668 assay (IL-6 ELISA); conditions: mouse splenocytes, Oligo CpG 1668, 72 hrs
Method: (2) Splenocyte CpG 1668 Assay: Some of the compounds tested in the primary assay were also assayed for suppression of mouse spleen IL-6 production in response to stimulation with Oligo CpG 1668, a synthetic phosphorothioate oligonucleotide (Krieg et al. Nature. 374:546-9 (1995)), with nucleotide sequence [NT] (SEQ ID NO:2). Each compound was added to dissociated splenocytes before addition of stimulatory oligonucleotide. Cells were stimulated in culture for 72 hrs and the supernatant was removed for ELISA analysis of IL-6 level. Here the IC50 is defined as the concentration of compound that suppresses cytokine production to 50% of that observed in the absence of compound, i.e., full stimulation.

[3] = HEK293 transfected with human TLR9 and NF-kB luciferase, compound 30 min before Oligo CpG 2006, overnight, read-out: HEK/TLR9 IC50

`c1ccc(CNCCCOc2ccc(-c3nc4ccc(OCCCNCc5ccccn5)cc4o3)cc2)nc1` [Compound 8] was tested, and the IC50 [1] was 7820 nM, the IC50 (human TLR9; [3]) was 19.7 nM and the IC50 (human TLR7) was 1230 nM.

With `CN(C)CCOc1ccc(-c2nc3ccc(OCCN(C)C)cc3o2)cc1` [Compound 1] the IC50 (human TLR9; [3]) was 31 nM, the IC50 (human TLR9; read-out: IC50 in the primary HEK/TLR9 assay) was 60 nM and the IC50 (human TLR7) was 7800 nM. For the same compound, the IC50 [2] was 290 nM.

`CC(C)(CN1CCOCC1)NCCCOc1ccc(-c2nc3ccc(OCCCNC(C)(C)CN4CCOCC4)cc3o2)cc1` [Compound 10] gave an IC50 [1] of 9800 nM, an IC50 (human TLR9; [3]) of 15.3 nM and an IC50 (human TLR7) of 350 nM. The IC50 [2] was 26 nM.

In the case of `CN(C)[C@H]1CCN(CCCOc2ccc(-c3nc4ccc(OCCCN5CC[C@H](N(C)C)C5)cc4o3)cc2)C1` [Compound 17], the IC50 [1] is reported as greater than 10000 nM, the IC50 (human TLR9; [3]) is reported as 5.3 nM and the IC50 (human TLR7) is reported as 170 nM. For the same compound, the IC50 [2] was 6 nM.

`CCCN(C)CCCOc1ccc(-c2nc3ccc(OCCCN(C)CCC)cc3o2)cc1` [Compound 29] was tested, and the IC50 [1] was 10400 nM, the IC50 (human TLR9; [3]) was 19.3 nM and the IC50 (human TLR7) was 780 nM. For the same compound, the IC50 [2] was 42 nM.

With `CN(C)CCCCCOc1ccc(-c2nc3ccc(OCCCCCN(C)C)cc3o2)cc1` [Compound 3] the IC50 (human TLR9; [3]) was 23 nM and the IC50 (human TLR7) was 1400 nM.

In the case of `COCCN(C)CCCOc1ccc(-c2nc3ccc(OCCCN(C)CCOC)cc3o2)cc1` [Compound 18], the IC50 [1] is reported as 9900 nM, the IC50 (human TLR9; [3]) is reported as 19.2 nM and the IC50 (human TLR7) is reported as 1400 nM.

Compound `CCNCCCOc1ccc(-c2nc3ccc(OCCCNCC)cc3o2)cc1` [Compound 33] has an IC50 (human TLR9; [3]) of 100 nM and an IC50 (human TLR7) of 8520 nM.

Compound `CN(C)CCCCN(C)CCCOc1ccc(-c2nc3ccc(OCCCN(C)CCCCN(C)C)cc3o2)cc1` [Compound 38] has an IC50 (human TLR9; [3]) of 34 nM and an IC50 (human TLR7) greater than 2500 nM.

With `CCN(C)CCCOc1ccc(-c2nc3ccc(OCCCN(C)CC)cc3o2)cc1` [Compound 21] the IC50 [1] was 9580 nM, the IC50 (human TLR9; [3]) was 13.3 nM and the IC50 (human TLR7) was 1240 nM.

With `COCCNCCCOc1ccc(-c2nc3ccc(OCCCNCCOC)cc3o2)cc1` [Compound 7] the IC50 [1] was greater than 10000 nM, the IC50 (human TLR9; [3]) was 23.3 nM and the IC50 (human TLR7) was 1310 nM.

For `CN(C)CCCOCCCN(C)CCCOc1ccc(-c2nc3ccc(OCCCN(C)CCCOCCCN(C)C)cc3o2)cc1` [Compound 37], the IC50 (human TLR9; [3]) was 30 nM and the IC50 (human TLR7) was greater than 2500 nM.
